Measured values from US9271957B2, “Methods of treating or preventing degenerative joint conditions, osteoarthritis, cartilage damage, and related disorders in companion animals” (HILL'S PET NUTRITION, INC., priority 2008, dated 2016).

What was measured:
Plasma metabolomics = type: in vivo; conditions: relative to control fed dogs
Protocol: Metabolomics: Plasma metabolites were analyzed and were compared as fold change relative to the control fed dogs.

cartilage markers [1] = assay: Serum cartilage (arthritic) markers measured in the blood by ELISA in dogs fed different foods; type: in vivo
canine bone cells = assay: Genes related to cartilage metabolism altered by lipoic acid in canine bone cells; type: in vivo, dogs; conditions: 90 days
[2] = test system: genes related to cartilage and energy metabolism; assay: Differential gene expression profile, whole blood RNA on canine 2 Affymetrix genechips; type: in vivo, dogs
From the text: A differential gene expression profile was studied between an AAFCO control food, a food containing fish oil, and a food containing lipoic acid. At a minimum of 1.3 fold change, a list of 1212 genes was generated compared to the AAFCO control and 1896 genes compared to the food containing fish oil at d 30.
RNA Extraction: Total RNAs were isolated from whole blood samples using the PAXgene RNA isolation kit. All measurements were done with the canine 2 Affymetrix genechips. For statistical analysis, all measurements were normalized with RMA. All analysis was preformed using Partek. An ANOVA t-test was performed for genes that are differentially expressed between the control and test foods were selected based on p-value cutoff 0.1, fold change >+/−1.3.
Table 4 illustrates the change in genes related to cartilage metabolism and energy metabolism in dogs after being fed a control diet compared with dogs fed a control plus lipoic acid.

[3] = Body fat of dogs fed food containing lipoic acid; type: in vivo; conditions: dogs fed a food containing lipoic acid
From the text: These two markers are known to increase in dogs with osteoarthritis. […] In other words, dogs fed lipoic acid utilized available glucose more efficiently and shifted their metabolism towards mobilization of fat for energy use. […] The following tables show the difference in fat and weight as well as cartilage markers relative to treatment with lipoic acid.

cartilage markers [4] = assay: Serum cartilage (arthritic) markers measured in the blood by ELISA in dogs fed different foods; type: in vivo; conditions: for CPII: blood, d 0 as covariate
Protocol: Thirty (30) dogs were used to determine the effect of lipoic acid when compared to an AAFCO control food or a test food containing fish oil.
Biomarker Measurements: Serum cartilage markers were measured using ELISA based kits to determine concentrations of cartilage markers. Day 0 was used as a covariate in the analysis to adjust for baseline values.
Table 2 illustrates the change in blood level of arthritic markers in dogs after being fed a control diet compared with dogs fed a control plus fish oil and a control plus lipoic acid for 30 days and measured again at day 90.
Table 6 illustrates arthritic makers measured in blood samples for dogs after being fed a control diet compared with dogs fed a pet food including lipoic acid for 90 days.

[5] = lipoic acid vs. control, cartilage metabolism
[6] = lipoic acid vs. control, energy metabolism
[7] = lipoic acid vs. fish oil, cartilage metabolism
[8] = lipoic acid vs. fish oil, energy metabolism
[9] = vs a similar food without lipoic acid

With O=C(O)CCCC[C@@H]1CCSS1 (racemic) [Lipoic acid, lipoic acid] the “metabolite hydroxyproline in plasma” value (Plasma metabolomics) was “reduced”, the “Change CPII” value (cartilage markers [1]; Day 30, without covariates) was −95.10 and the “Change CTXII” value (cartilage markers [1]; Day 30, without covariates) was −5.60. For the same compound, the “Change CPII” value (cartilage markers [1]; Day 90, without covariates) was −232.70, the “Change CTXII” value (cartilage markers [1]; Day 90, without covariates) was −0.59 and the “Directional change MMP3 (1582602_at)” value (canine bone cells) was “down regulation and Down”. The “Directional change Prolyl 4-hydroxylase (1600479_at)” value (canine bone cells) was “up-regulation and up”, the “Directional change TIMP2 (1582708_at)” value (canine bone cells) was “up-regulation and up” and the PDK4 gene expression ([2]; dogs fed lipoic acid) was “increasing”. For the same compound, the “glucose transporters gene expression” value ([2]; dogs fed lipoic acid) was “upregulation”, the “Fold change 12-lipooxygenase” value [2, 5] was −1.3 and the “Fold change Chondroitan sulfate synthase 1” value [2, 5] was 1.4. For the same compound, the “Fold change Facilitated glucose transporter 9” value [2, 5] was 1.4, the “Fold change Prolyl hydroxylase alpha 1” value [2, 5] was 1.4 and the “Fold change Prolyl hydroxylase alpha 2” value [2, 5] was 1.3. The “Fold change TIMP1” value [2, 5] was 1.3, the “Fold change chondroitan sulfate proteoglycan 2 (veriscan)” value [2, 5] was 1.5 and the “Fold change heparin sulfate N-deacetylase/N-sulfotransferase 2” value [2, 5] was 1.3. For the same compound, the “Fold change 5′ AMP alpha 1” value [2, 6] was 1.3, the “Fold change 5′ AMP beta 1” value [2, 6] was 1.3 and the “Fold change 5′ AMP gamma 2” value [2, 6] was 1.4. The “Fold change Facilitated glucose transporter 1” value [2, 6] was 1.3, the “Fold change Facilitated glucose transporter 6” value [2, 6] was 1.3 and the “Fold change Fatty acid desaturase 1” value [2, 6] was 1.9. For the same compound, the “Fold change Hexokinase 3” value [2, 6] was 1.3, the “Fold change PDK4” value [2, 6] was 1.4 and the “Fold change PPAR gamma” value [2, 6] was 1.3. For the same compound, the “Fold change Succinyl CoA ligase alpha” value [2, 6] was 1.3, the “Fold change 12-lipooxygenase” value [2, 7] was −1.3 and the “Fold change ADAMTS-2” value [2, 7] was −1.3. For the same compound, the “Fold change ADAMTS-10” value [2, 7] was −1.3, the “Fold change ADAMTS-16” value [2, 7] was −1.3 and the “Fold change Chondroitan sulfate synthase 1” value [2, 7] was 1.3. For the same compound, the “Fold change Facilitated glucose transporter 9” value [2, 7] was 1.4, the “Fold change Fibronectin 1” value [2, 7] was 1.4 and the “Fold change Lysyl hydroxylase” value [2, 7] was 1.3. The “Fold change MMP2” value [2, 7] was −1.3, the “Fold change MMP7” value [2, 7] was −1.3 and the “Fold change N-acetylgalactosaminyl-transferase 1” value [2, 7] was 1.3. For the same compound, the “Fold change Transforming growth factor beta receptor 1” value [2, 7] was 1.3, the “Fold change chondroitan sulfate proteoglycan 2 (veriscan)” value [2, 7] was 1.5 and the “Fold change 5′ AMP alpha 1” value [2, 8] was 1.3. For the same compound, the “Fold change 5′ AMP beta 1” value [2, 8] was 1.3, the “Fold change 5′ AMP gamma 2” value [2, 8] was 1.5 and the “Fold change Facilitated glucose transporter 1” value [2, 8] was 1.3. For the same compound, the “Fold change Facilitated glucose transporter 6” value [2, 8] was 1.4, the “Fold change Hexokinase 3” value [2, 8] was 1.3 and the “Fold change PDK4” value [2, 8] was 1.6. The “Fold change PPAR gamma” value [2, 8] was 1.3, the “Fold change SREBP-1” value [2, 8] was −1.3 and the “Fold change Succinyl CoA ligase alpha” value [2, 8] was 1.3. The “Fold change Succinyl CoA ligase beta” value [2, 8] was 1.3, the “Fold change cAMP responsice element modulator” value [2, 8] was 1.3 and the Body fat [3] was “lost fat”. For the same compound, the “CPII” value (cartilage markers [4]; Day 30) was 986.28 ng/mL, the “CPII” value (cartilage markers [4]; Day 90) was 848.0 ng/mL and the immune status markers (cartilage markers [4]; after 90 days) was “decreased”. For the same compound, the “arthritic markers (i.e., CPII and CTXII)” value (cartilage markers [4]; after a 30 day treatment period) was “reduction”, the “arthritic markers (i.e., CPII and CTXII)” value (cartilage markers [4]; after a 90 day period) was “greater reduction” and the “carboxy-terminal crosslinked telopeptide fragment of type II collagen” value (cartilage markers [4]; [9]) was “greater decrease”. The “type II collagen C-propeptide” value (cartilage markers [4]; [9]) was “greater decrease”.
